Converted amounts (≈) assume the structure as drawn.
What was measured:
Assay type in all cases: cell-based
[1] = test system: P. aeruginosa ΔmexAB-OprM (an efflux pump knockout); experiment: broth microdilution MIC assay, P. aeruginosa ΔmexAB-OprM; details: Pseudomonas aeruginosa, read-out: MIC, P. aeruginosa ΔmexAB-OprM
Experimental: (§1) To determine the ability of test compounds to inhibit the growth of bacterial strains, classic cell-based broth microdilution MIC assays were employed. MIC assays are performed according to CLSI methods except where otherwise noted (CLSI, 2011 and CLSI, 2009). The reference strains S. aureus ATCC 29213 (methicillin sensitive), S. aureus ATCC 33591 (methicillin-resistant), E. coli ATCC 25922 (wild-type/QC strain), P. aeruginosa ATCC 27853 (wild-type/QC strain), and the clinical isolate P. aeruginosa PA 8 were used to determine the ability of the exemplary carbapenem compounds to inhibit bacterial growth. An expanded panel of methicillin resistance S. aureus (MRSA) and Pseudomonas was also used to determine the ability of exemplary carbapenem compounds to inhibit bacterial growth across a broader representation of those species. To determine activity in MRSA and in addition to S. aureus ATCC 33591, S. aureus USA 300 and USA 600, some of the most common clones found to cause human infection, were also used. To further gauge the impact on the carbapenem compounds due to various resistance mechanisms in Pseudomonas, the following strains were included: P. aeruginosa 35151 (hyper-permeable strain), P. aeruginosa ΔmexAB-OprM (an efflux pump knockout), and P. aeruginosa Paβ-173 (a clinical isolate of reduced carbapenem susceptibility). Briefly, cryo-preserved bacterial cultures of clinical strains are streaked for isolation on appropriate agar medium, in this case Mueller Hinton II agar. Following incubation to allow formation of colonies, these plates are sealed with parafilm and stored refrigerated for up to two weeks. For preparation of assay inocula and to ensure low variability, at least 5 colonies are picked from the agar plates with an inoculating loop and aseptically transferred to a culture tube containing 3 mL of Mueller-Hinton Broth (supplemented with divalent cations to required levels based on Manufacturers' specification). The broth culture is grown for 3-5 hours at 37° C. with shaking at 200 rpm. Meanwhile, 2-fold serial dilutions of test compounds are conducted in a 96 well plate with a final volume of 75 μL per well at 2-fold the final desired concentration. After the dilution plates are set up the growing cultures are then diluted in a cuvette containing MH II broth and the optical density is measured at 600 nm. Inocula are diluted such that 75 μL of this culture in Mueller-Hinton Broth results in a starting bacterial concentration of 5×10^5 CFU/mL when added to the dilution plates. The plates are incubated 16-20 hours at 37° C. The MIC is read visually as the lowest concentration well with no bacterial growth.

[2] = test system: S. aureus ATCC 33591 (methicillin-resistant); experiment: broth microdilution MIC assay, S. aureus 33591; details: Staphylococcus aureus, ATCC33591; S. aureus 33591, methicillin-resistant; read-out: MIC, S. aureus 33591
Experimental: as §1

[3] = test system: P. aeruginosa ATCC 27853 (wild-type/QC strain); experiment: broth microdilution MIC assay, P. aeruginosa 27853; details: Pseudomonas aeruginosa, ATCC27853; read-out: MIC, P. aeruginosa 27853
Experimental: as §1

[4] = test system: P. aeruginosa 35151 (hyper-permeable strain); experiment: broth microdilution MIC assay, P. aeruginosa 35151; details: Pseudomonas aeruginosa, read-out: MIC, P. aeruginosa 35151
Experimental: as §1

[5] = test system: E. coli ATCC 25922 (wild-type/QC strain); experiment: broth microdilution MIC assay, E. coli 25922; details: Escherichia coli, ATCC25922; read-out: MIC, E. coli 25922
Experimental: as §1

S. aureus USA 600 = experiment: broth microdilution MIC assay, S. aureus USA600; details: Staphylococcus aureus; S. aureus USA600 (MRSA); read-out: MIC, S. aureus USA600
Experimental: as §1

P. aeruginosa Paeβ-17 = experiment: broth microdilution MIC assay, P. aeruginosa Paeβ-17; details: Pseudomonas aeruginosa, read-out: MIC, P. aeruginosa Paeβ-17
Experimental: as §1

S. aureus USA 300 = experiment: broth microdilution MIC assay, S. aureus USA300; details: Staphylococcus aureus; S. aureus USA300 (MRSA); read-out: MIC, S. aureus USA300
Experimental: as §1

SMILES: C[C@@H](O)[C@H]1C(=O)N2C(C(=O)O)=C(SC3CN([C@H]4C[C@@H](CN)C4)C3)[C@H](C)[C@H]12 [Example 1, (4R,5S,6S)-3-((1-((1s,3S)-3-(aminomethyl)cyclobutyl)azetidin-3-yl)thio)-6-((R)-1-hydroxyethyl)-4-methyl-7-oxo-1-azabicyclo[3.2.0]hept-2-ene-2-carboxylic acid]
- MIC [1]: 1 to 4 µg/mL (≈ 2.62 to 10.5 µM)
- MIC [2]: 8 to 32 µg/mL (≈ 21 to 83.9 µM)
- MIC [3]: 8 to 32 µg/mL (≈ 21 to 83.9 µM)
- MIC [4]: < 1 µg/mL
- MIC [5]: < 1 µg/mL
- MIC (S. aureus USA 600): 1 to 4 µg/mL (≈ 2.62 to 10.5 µM)
- MIC (P. aeruginosa Paeβ-17): > 32 µg/mL
- MIC (S. aureus USA 300): 1 to 4 µg/mL (≈ 2.62 to 10.5 µM)

SMILES: C[C@@H](O)[C@H]1C(=O)N2C(C(=O)O)=C(SC3CN([C@H]4C[C@H](CN)C4)C3)[C@H](C)[C@H]12 [Example 2, (4R,5S,6S)-3-((1-((1r,3R)-3-(aminomethyl)cyclobutyl)azetidin-3-yl)thio)-6-((R)-1-hydroxyethyl)-4-methyl-7-oxo-1-azabicyclo[3.2.0]hept-2-ene-2-carboxylic acid]
- MIC [1]: 1 to 4 µg/mL (≈ 2.62 to 10.5 µM)
- MIC [2]: 8 to 32 µg/mL (≈ 21 to 83.9 µM)
- MIC [3]: 8 to 32 µg/mL (≈ 21 to 83.9 µM)
- MIC [4]: < 1 µg/mL
- MIC [5]: < 1 µg/mL
- MIC (S. aureus USA 600): 1 to 4 µg/mL (≈ 2.62 to 10.5 µM)
- MIC (P. aeruginosa Paeβ-17): > 32 µg/mL
- MIC (S. aureus USA 300): 1 to 4 µg/mL (≈ 2.62 to 10.5 µM)

SMILES: C[C@@H](O)[C@H]1C(=O)N2C(C(=O)O)=C(SC3CN([C@H]4C[C@@H](N)C4)C3)[C@H](C)[C@H]12 [Example 3, (4R,5S,6S)-3-((1-((1s,3S)-3-aminocyclobutyl)azetidin-3-yl)thio)-6-((R)-1-hydroxyethyl)-4-methyl-7-oxo-1-azabicyclo[3.2.0]hept-2-ene-2-carboxylic acid]
- MIC [1]: 1 to 4 µg/mL (≈ 2.72 to 10.9 µM)
- MIC [2]: 8 to 32 µg/mL (≈ 21.8 to 87.1 µM)
- MIC [3]: 8 to 32 µg/mL (≈ 21.8 to 87.1 µM)
- MIC [4]: < 1 µg/mL
- MIC [5]: < 1 µg/mL
- MIC (S. aureus USA 600): 1 to 4 µg/mL (≈ 2.72 to 10.9 µM)
- MIC (P. aeruginosa Paeβ-17): > 32 µg/mL
- MIC (S. aureus USA 300): 1 to 4 µg/mL (≈ 2.72 to 10.9 µM)

SMILES: C[C@@H](O)[C@H]1C(=O)N2C(C(=O)O)=C(SC3CN([C@H]4C[C@H](N)C4)C3)[C@H](C)[C@H]12 [Example 4, (4R,5S,6S)-3-((1-((1r,3R)-3-aminocyclobutyl)azetidin-3-yl)thio)-6-((R)-1-hydroxyethyl)-4-methyl-7-oxo-1-azabicyclo[3.2.0]hept-2-ene-2-carboxylic acid]
- MIC [1]: 1 to 4 µg/mL (≈ 2.72 to 10.9 µM)
- MIC [2]: 8 to 32 µg/mL (≈ 21.8 to 87.1 µM)
- MIC [3]: 8 to 32 µg/mL (≈ 21.8 to 87.1 µM)
- MIC [4]: < 1 µg/mL
- MIC [5]: < 1 µg/mL
- MIC (S. aureus USA 600): 1 to 4 µg/mL (≈ 2.72 to 10.9 µM)
- MIC (P. aeruginosa Paeβ-17): > 32 µg/mL
- MIC (S. aureus USA 300): 1 to 4 µg/mL (≈ 2.72 to 10.9 µM)

SMILES: C[C@@H](O)[C@H]1C(=O)N2C(C(=O)O)=C(SC3CN([C@H]4CC[C@H](N)C4)C3)[C@H](C)[C@H]12 [Example 5, (4R,5S,6S)-3-((1-((1S,3S)-3-aminocyclopentyl)azetidin-3-yl)thio)-6-((R)-1-hydroxyethyl)-4-methyl-7-oxo-1-azabicyclo[3.2.0]hept-2-ene-2-carboxylic acid]
- MIC [1]: 1 to 4 µg/mL (≈ 2.62 to 10.5 µM)
- MIC [2]: 1 to 4 µg/mL (≈ 2.62 to 10.5 µM)
- MIC [3]: 1 to 4 µg/mL (≈ 2.62 to 10.5 µM)
- MIC [4]: < 1 µg/mL
- MIC [5]: < 1 µg/mL
- MIC (S. aureus USA 600): 1 to 4 µg/mL (≈ 2.62 to 10.5 µM)
- MIC (P. aeruginosa Paeβ-17): 8 to 32 µg/mL (≈ 21 to 83.9 µM)
- MIC (S. aureus USA 300): 1 to 4 µg/mL (≈ 2.62 to 10.5 µM)

SMILES: C[C@@H](O)[C@H]1C(=O)N2C(C(=O)O)=C(SC3CN([C@@H]4CC[C@H](N)C4)C3)[C@H](C)[C@H]12 [Example 6, (4R,5S,6S)-3-((1-((1R,3S)-3-aminocyclopentyl)azetidin-3-yl)thio)-6-((R)-1-hydroxyethyl)-4-methyl-7-oxo-1-azabicyclo[3.2.0]hept-2-ene-2-carboxylic acid]
- MIC [1]: 1 to 4 µg/mL (≈ 2.62 to 10.5 µM)
- MIC [2]: 1 to 4 µg/mL (≈ 2.62 to 10.5 µM)
- MIC [3]: 1 to 4 µg/mL (≈ 2.62 to 10.5 µM)
- MIC [4]: < 1 µg/mL
- MIC [5]: < 1 µg/mL
- MIC (S. aureus USA 600): 1 to 4 µg/mL (≈ 2.62 to 10.5 µM)
- MIC (P. aeruginosa Paeβ-17): 8 to 32 µg/mL (≈ 21 to 83.9 µM)
- MIC (S. aureus USA 300): 1 to 4 µg/mL (≈ 2.62 to 10.5 µM)

SMILES: C[C@@H](O)[C@H]1C(=O)N2C(C(=O)O)=C(SC3CN([C@H]4CC[C@@H](N)C4)C3)[C@H](C)[C@H]12 [Example 7, (4R,5S,6S)-3-((1-((1S,3R)-3-aminocyclopentyl)azetidin-3-yl)thio)-6-((R)-1-hydroxyethyl)-4-methyl-7-oxo-1-azabicyclo[3.2.0]hept-2-ene-2-carboxylic acid]
- MIC [1]: 1 to 4 µg/mL (≈ 2.62 to 10.5 µM)
- MIC [2]: 8 to 32 µg/mL (≈ 21 to 83.9 µM)
- MIC [3]: 8 to 32 µg/mL (≈ 21 to 83.9 µM)
- MIC [4]: < 1 µg/mL
- MIC [5]: < 1 µg/mL
- MIC (S. aureus USA 600): 1 to 4 µg/mL (≈ 2.62 to 10.5 µM)
- MIC (P. aeruginosa Paeβ-17): 8 to 32 µg/mL (≈ 21 to 83.9 µM)
- MIC (S. aureus USA 300): 1 to 4 µg/mL (≈ 2.62 to 10.5 µM)

SMILES: C[C@@H](O)[C@H]1C(=O)N2C(C(=O)O)=C(SC3CN([C@@H]4CC[C@@H](N)C4)C3)[C@H](C)[C@H]12 [Example 8, (4R,5S,6S)-3-((1-((1R,3R)-3-aminocyclopentyl)azetidin-3-yl)thio)-6-((R)-1-hydroxyethyl)-4-methyl-7-oxo-1-azabicyclo[3.2.0]hept-2-ene-2-carboxylic acid]
- MIC [1]: 1 to 4 µg/mL (≈ 2.62 to 10.5 µM)
- MIC [2]: 1 to 4 µg/mL (≈ 2.62 to 10.5 µM)
- MIC [3]: 1 to 4 µg/mL (≈ 2.62 to 10.5 µM)
- MIC [4]: < 1 µg/mL
- MIC [5]: < 1 µg/mL
- MIC (S. aureus USA 600): 1 to 4 µg/mL (≈ 2.62 to 10.5 µM)
- MIC (P. aeruginosa Paeβ-17): 8 to 32 µg/mL (≈ 21 to 83.9 µM)
- MIC (S. aureus USA 300): 1 to 4 µg/mL (≈ 2.62 to 10.5 µM)

SMILES: C[C@@H](O)[C@H]1C(=O)N2C(C(=O)O)=C(SC3CN([C@H]4CC[C@@H](NC(=N)N)C4)C3)[C@H](C)[C@H]12 [Example 9, (4R,5S,6S)-3-((1-((1S,3R)-3-guanidinocyclopentyl)azetidin-3-yl)thio)-6-((R)-1-hydroxyethyl)-4-methyl-7-oxo-1-azabicyclo[3.2.0]hept-2-ene-2-carboxylic acid]
- MIC [1]: < 1 µg/mL
- MIC [2]: 1 to 4 µg/mL (≈ 2.36 to 9.44 µM)
- MIC [3]: 1 to 4 µg/mL (≈ 2.36 to 9.44 µM)
- MIC [4]: < 1 µg/mL
- MIC [5]: < 1 µg/mL
- MIC (S. aureus USA 600): < 1 µg/mL
- MIC (P. aeruginosa Paeβ-17): 8 to 32 µg/mL (≈ 18.9 to 75.6 µM)
- MIC (S. aureus USA 300): < 1 µg/mL

SMILES: C[C@@H](O)[C@H]1C(=O)N2C(C(=O)O)=C(SC3CN([C@@H]4CC[C@@H](NC(=N)N)C4)C3)[C@H](C)[C@H]12 [Example 10, (4R,5S,6S)-3-((1-((1R,3R)-3-guanidinocyclopentyl)azetidin-3-yl)thio)-6-((R)-1-hydroxyethyl)-4-methyl-7-oxo-1-azabicyclo[3.2.0]hept-2-ene-2-carboxylic acid]
- MIC [1]: 1 to 4 µg/mL (≈ 2.36 to 9.44 µM)
- MIC [2]: 1 to 4 µg/mL (≈ 2.36 to 9.44 µM)
- MIC [3]: 8 to 32 µg/mL (≈ 18.9 to 75.6 µM)
- MIC [4]: < 1 µg/mL
- MIC [5]: < 1 µg/mL
- MIC (S. aureus USA 600): 1 to 4 µg/mL (≈ 2.36 to 9.44 µM)
- MIC (P. aeruginosa Paeβ-17): 8 to 32 µg/mL (≈ 18.9 to 75.6 µM)
- MIC (S. aureus USA 300): 1 to 4 µg/mL (≈ 2.36 to 9.44 µM)

Reference: patent publication US20230127944A1, “BROAD-SPECTRUM CARBAPENEMS” (priority 2019, published 2023)
